This passage reports Ca2+ excretion, Concentration and IC50 results from ChEMBL document CHEMBL1126544, “Synthesis and biological evaluation of MC 1357, a new 20-epi-23-oxa-1,25-dihydroxy-vitamin D3 analogue with potent non-classical effects” (Bioorg Med Chem Lett, 1993).

In assay [1] the test system is Rattus norvegicus. As to the kind of experiment: Compound was evaluated for calciuric effect (urinary calcium excretion in rats) at a dose of 0.5 ug/kg/day was administered orally for 7 days: Calcium excretion in control rats receiving vehicle alone of 20 umol/day. It counts as functional, Urine.
The test system of assay [2] is U-937. As to the kind of experiment: Concentration to induce cell differentiation in U 937 cells. It counts as functional, cell-based. As to conditions: Homo sapiens.
Assay [3] relates to T-cell. Description: Concentration to inhibit T-cell activation in Murine MLR. It counts as functional, cell-based. As to conditions: Mus musculus.
For assay [4], the system named is U-937. As to the kind of experiment: Concentration to inhibit cell proliferation in U 937 cells. To be noted: Homo sapiens. It counts as functional, cell-based.

As a reminder, the IC50 is the concentration needed to halve the response being measured. A low value points to inhibition by little substance.

With `C=C1/C(=C\C=C2/CCC[C@]3(C)[C@@H]([C@H](C)CCCC(C)(C)O)CC[C@@H]23)C[C@@H](O)C[C@@H]1O` [CALCITRIOL], the Ca2+ excretion in assay [1] was 83 µmol/day. The molecule further gave a Concentration in assay [2] of 2 nM. Further, in assay [3], half-maximal inhibition (IC50) required 50 pM.
With `C=C1/C(=C\C=C2/CCC[C@]3(C)[C@@H]([C@@H](C)COCCCC(C)(C)O)CC[C@@H]23)C[C@@H](O)C[C@@H]1O`, the Ca2+ excretion in assay [1] is 49 µmol/day. Moreover, in assay [2], the Concentration is 0.001 nM. Also, the IC50 in assay [3] amounted to 0.6 pM; in assay [4] it was 10 pM.
